Laboratory results from doi:10.1101/261990v1 (biorxiv, 2018).

Experiments:
[1] = target: T1, MGIC (Myoinhibitory peptide-Gated Ion Channel; ENaC5) (Platynereis dumerilii, UniProt A0A2S1B6I3); test: two-electrode voltage clamp, Xenopus oocytes; format: cell-based; details: read-out: % of control current at 50 μM
T1 sequence (A0A2S1B6I3 1-589): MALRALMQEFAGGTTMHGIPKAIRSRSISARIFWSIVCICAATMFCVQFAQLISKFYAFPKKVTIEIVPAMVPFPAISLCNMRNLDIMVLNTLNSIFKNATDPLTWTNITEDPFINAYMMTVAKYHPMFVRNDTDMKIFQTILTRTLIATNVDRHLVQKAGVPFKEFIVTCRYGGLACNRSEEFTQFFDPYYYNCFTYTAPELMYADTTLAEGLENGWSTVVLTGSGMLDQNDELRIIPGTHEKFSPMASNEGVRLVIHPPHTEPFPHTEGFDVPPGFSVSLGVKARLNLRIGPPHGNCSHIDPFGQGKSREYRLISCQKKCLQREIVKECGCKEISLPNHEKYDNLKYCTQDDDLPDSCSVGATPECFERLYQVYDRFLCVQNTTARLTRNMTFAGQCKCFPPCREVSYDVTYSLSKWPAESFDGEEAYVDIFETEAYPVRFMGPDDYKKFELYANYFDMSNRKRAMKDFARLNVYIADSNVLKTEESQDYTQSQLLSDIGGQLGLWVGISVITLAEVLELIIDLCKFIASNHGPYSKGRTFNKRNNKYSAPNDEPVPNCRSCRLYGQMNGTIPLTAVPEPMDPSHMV

[2] = target: T1, MGIC (Myoinhibitory peptide-Gated Ion Channel; ENaC5); test: two-electrode voltage clamp, Xenopus oocytes; format: cell-based

| Compound | remaining activity at 50 µM [1] | IC50 [2] |
| --- | --- | --- |
| NC(=NC(=O)c1nc(Cl)c(N)nc1N)Nc1ccccc1 [phenamil] | 45 ± 4% |  |
| NC(=NC(=O)c1nc(Cl)c(N)nc1N)NCc1ccccc1 [benzamil] | 74 ± 3% |  |
| N=C(N)NC(=O)c1nc(Cl)c(N)nc1N [amiloride] |  | 13 ± 2 µM |
| N=C(N)c1ccc(/N=N/Nc2ccc(C(=N)N)cc2)cc1 [diminazene] |  | 0.73 ± 0.16 µM |
